Assay results published in patent publication US7956077B2, “2-{-3,′2-(phenyl)-oxazol-4-ylmethoxyl-cyclohexyl methoxy}-propionic acid derivatives used as peroxisome proliferator-activated receptor (PPAR) ligands for the treatment of hyperlipidemia and diabetes” (Sanofi-Aventis Deutschland GmbH, priority 2004, dated 2011).
Where “and” joins values, the source holds several entries; their conditions need not be identical. Identical values can stand only once.

What was measured:
human PPARalpha = molecular target: T1, human PPARalpha (Homo sapiens, UniProt Q07869); assay: Cellular PPARalpha assay (stably transfected HEK luciferase reporter cell line); assay type: cell-based; conditions: PPARalpha reporter cell line (HEK, GR-GAL4-humanPPARalpha-LBD), 24 h incubation
T1 construct: human PPARalpha receptor (amino acids S167-Y468); expressed in transfected cells; host or cells: HEK cells, stably transfected (pcDNA3 construct)
T1 sequence (Q07869 167-468): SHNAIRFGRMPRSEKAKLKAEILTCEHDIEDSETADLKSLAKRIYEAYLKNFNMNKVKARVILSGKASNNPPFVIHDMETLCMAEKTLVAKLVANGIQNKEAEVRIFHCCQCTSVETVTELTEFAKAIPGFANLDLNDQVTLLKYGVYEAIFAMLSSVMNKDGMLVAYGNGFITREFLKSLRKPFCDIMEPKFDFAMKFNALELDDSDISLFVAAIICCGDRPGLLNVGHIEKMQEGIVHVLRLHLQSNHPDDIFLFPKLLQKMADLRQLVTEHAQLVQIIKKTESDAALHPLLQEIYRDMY
Protocol: Determination of EC50 Values of PPAR Agonists in the Cellular PPARalpha Assay
The potency of substances which bind to human PPARalpha and activate it in an agonistic manner is analyzed using a stably transfected HEK cell line (HEK=human embryo kidney) which is referred to here as PPARalpha reporter cell line. It contains two genetic elements, a luciferase reporter element (pdeltaM-GAL4-Luc-Zeo) and a PPARalpha fusion protein (GR-GAL4-humanPPARalpha-LBD) which mediates expression of the luciferase reporter element depending on a PPARalpha ligand. The stably and constitutively expressed fusion protein GR-GAL4-humanPPARalpha-LBD binds in the cell nucleus of the PPARalpha reporter cell line via the GAL4 protein portion to the GAL4 DNA binding motifs 5′-upstream of the luciferase reporter element which is stably integrated in the genome of the cell line. There is only little expression of the luciferase reporter gene without addition of a PPARalpha ligand if fatty acid-depleted fetal calf serum (cs-FCS) is used in the assay. PPARalpha ligands bind and activate the PPARalpha fusion protein and thereby bring about expression of the luciferase reporter gene. The luciferase which is formed can be detected by means of chemiluminescence via an appropriate substrate.
Construction of the Cell Line
The PPARalpha reporter cell line was prepared in two steps. Firstly, the luciferase reporter element was constructed and stably transfected into HEK cells. For this purpose, five binding sites of the yeast transcription factor GAL4 (in each case 5′-CGGAGTACTGTCCTCCGAG-3′) were cloned in 5′-upstream of a 68 bp-long minimal MMTV promoter (Genbank Accession # V01175). The minimal MMTV promoter section contains a CCAAT box and a TATA element in order to enable efficient transcription by RNA polymerase II. The cloning and sequencing of the GAL4-MMTV construct took place in analogy to the description of Sambrook J. et. al. (Molecular cloning, Cold Spring Harbor Laboratory Press, 1989). Then the complete Photinus pyralis luciferase gene (Genbank Accession # M15077) was cloned in 3′-downstream of the GAL4-MMTV element. After sequencing, the luciferase reporter element consisting of five GAL4 binding sites, MMTV promoter and luciferase gene was subcloned into a plasmid which confers zeozin resistance in order to obtain the plasmid pdeltaM-GAL4-Luc-Zeo. This vector was transfected into HEK cells in accordance with the statements in Ausubel, F. M. et al. (Current protocols in molecular biology, Vol. 1-3, John Wiley & Sons, Inc., 1995).
In a second step, the PPARalpha fusion protein (GR-GAL4-humanPPARalpha-LBD) was introduced into the stable cell clone described. For this purpose, initially the cDNA coding for the N-terminal 76 amino acids of the glucocorticoid receptor (Genbank Accession # P04150) was linked to the cDNA section coding for amino acids 1-147 of the yeast transcription factor GAL4 (Genbank Accession # P04386). The cDNA of the ligand-binding domain of the human PPARalpha receptor (amino acids S167-Y468; Genbank Accession # S74349) was cloned in at the 3′ end of this GR-GAL4 construct. The fusion construct prepared in this way (GR-GAL4-humanPPARalpha-LBD) was subcloned into the plasmid pcDNA3 (from Invitrogen) in order to enable constitutive expression therein by the cytomegalovirus promoter. This plasmid was linearized with a restriction endonuclease and stably transfected into the previously described cell clone containing the luciferase reporter element. The finished PPARalpha reporter cell line which contains a luciferase reporter element and constitutively expresses the PPARalpha fusion protein (GR-GAL4-humanPPARalpha-LBD) was isolated by selection with zeozin (0.5 mg/ml) and G418 (0.5 mg/ml).
The activity of PPARalpha agonists is determined in a 3-day assay which is described below: […]

human PPARgamma = molecular target: T2, human PPARgamma (Homo sapiens, UniProt P37231); assay: Cellular PPARgamma assay (transiently transfected HEK cells, luciferase reporter); assay type: cell-based; conditions: HEK cells transiently transfected with GAL4-humanPPARgammaLBD, 48 h incubation
T2 construct: human PPARgamma receptor (amino acids 1152-Y475); expressed in transfected cells; host or cells: HEK cells, transiently transfected with pcDNA3-GAL4-humanPPARgammaLBD
T2 sequence (P37231 182-477 isoform P37231-2 limits assumed): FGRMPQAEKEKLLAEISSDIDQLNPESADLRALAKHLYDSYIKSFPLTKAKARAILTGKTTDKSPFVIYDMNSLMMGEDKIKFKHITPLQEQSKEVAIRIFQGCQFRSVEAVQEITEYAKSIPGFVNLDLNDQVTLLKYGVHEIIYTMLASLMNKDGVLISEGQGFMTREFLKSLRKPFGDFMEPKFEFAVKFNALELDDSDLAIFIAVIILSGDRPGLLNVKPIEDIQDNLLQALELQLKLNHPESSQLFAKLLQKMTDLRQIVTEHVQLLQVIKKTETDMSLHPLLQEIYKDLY
Description: Determination of EC50 Values of PPAR Agonists in the Cellular PPARgamma Assay
A transient transfection system is employed to determine the cellular PPARgamma activity of PPAR agonists. It is based on the use of a luciferase reporter plasmid (pGL3basic-5×GAL4-TK) and of a PPARgamma expression plasmid (pcDNA3-GAL4-humanPPARgammaLBD). Both plasmids are transiently transfected into human mbryonic kidney cells (HEK cells). There is then expression in these cells of the usion protein GAL4-humanPPARgammaLBD which binds to the GAL4 binding sites of he reporter plasmid. In the presence of a PPARgamma-active ligand, the activated usion protein GAL4-humanPPARgammaLBD induces expression of the luciferase reporter gene, which can be detected in the form of a chemiluminescence signal after addition of a luciferase substrate. As a difference from the stably transfected PPARalpha reporter cell line, in the cellular PPARgamma assay the two components (luciferase reporter plasmid and PPARgamma expression plasmid) are transiently transfected into HEK cells because stable and permanent expression of the PPARgamma fusion protein is cytotoxic.
Construction of the Plasmids
The luciferase reporter plasmid pGL3basic-5×GAL4-TK is based on the vector pGL3basic from Promega. The reporter plasmid is prepared by cloning five binding sites of the yeast transcription factor GAL4 (each binding site with the sequence 5′-CTCGGAGGACAGTACTCCG-3′), together with a 160 bp-long thymidine kinase promoter section (Genbank Accession # AF027128) 5′-upstream into pGL3basic. 3′-downstream of the thymidine kinase promoter is the complete luciferase gene from Photinus pyralis (Genbank Accession # M15077), which is already a constituent of the plasmid pGL3basic used. The cloning and sequencing of the reporter plasmid pGL3basic-5×GAL4-TK took place in analogy to the description in Sambrook J. et. al. (Molecular cloning, Cold Spring Harbor Laboratory Press, 1989).
The PPARgamma expression plasmid pcDNA3-GAL4-humanPPARgammaLBD was prepared by first cloning the cDNA coding for amino acids 1-147 of the yeast transcription factor GAL4 (Genbank Accession # P04386) into the plasmid pcDNA3 (from Invitrogen) 3′-downstream of the cytomegalovirus promoter. Subsequently, the cDNA of the ligand-binding domain (LBD) of the human PPARgamma receptor (amino acids 1152-Y475; Accession # g1480099) 3′-downstream of the GAL4 DNA binding domain was cloned. Cloning and sequencing of the PPARgamma expression plasmid pcDNA3-GAL4-humanPPARgammaLBD again took place in analogy to the description in Sambrook J. et. al. (Molecular cloning, Cold Spring Harbor Laboratory Press, 1989). Besides the luciferase reporter plasmid pGL3basic-5×GAL4-TK and the PPARgamma expression plasmid pcDNA3-GAL4-humanPPARgammaLBD, also used for the cellular PPARgamma assay are the reference plasmid pRL-CMV (from Promega) and the plasmid pBluescript SK(+) from Stratagene. All four plasmids were prepared using a plasmid preparation kit from Qiagen, which ensured a plasmid quality with a minimal endotoxin content, before transfection into HEK cells.
The activity of PPARgamma agonists is determined in a 4-day assay which is described below. Before the transfection, HEK cells are cultivated in DMEM medium (#41965-039, Invitrogen) which is mixed with the following additions: 10% FCS (#16000-044, Invitrogen), 1% penicillin-streptomycin solution (#15140-122, Invitrogen) and 2 mM L-glutamine (#25030-024, Invitrogen).
Firstly, solution A, a transfection mixture which contains all four plasmids previously described in addition to DMEM medium, is prepared. […]

EC50 (human PPARalpha) | EC50 (human PPARgamma) [nM] | Compound
54 nM | 130 | CCCC(C)(OC[C@@H]1CCC[C@H](OCc2nc(-c3cccc(OC)c3)oc2CC)C1)C(=O)O (mixture of isomers) [Example 10, 2-{(1R,3S )-3-[5-Ethyl-2-(3-methoxyphenyl)oxazol-4-ylmethoxy]cyclohexylmethoxy}-2-methylpentanoic acid]
4.1 nM | 870 | CCCC(C)(OC[C@@H]1CCC[C@H](OCc2nc(-c3ccc(C)cc3)oc2CC)C1)C(=O)O (mixture of isomers) [Example 11, 2-[(1R,3S)-3-(5-Ethyl-2-p-tolyloxazol-4-ylmethoxy)cyclohexylmethoxy]-2-methyl-pentanoic acid]
12 nM | 75 | CCCC(C)(OC[C@@H]1CCC[C@H](OCc2nc(-c3ccc(CC(C)C)cc3)oc2CC)C1)C(=O)O (mixture of isomers) [Example 12, 2-{(1R,3S)-3-[5-Ethyl-2-(4-isobutylphenyl)oxazol-4-ylmethoxy]cyclohexylmethoxy}-2-methylpentanoic acid]
6.6 nM | 130 | CCCC(C)(OC[C@@H]1CCC[C@H](OCc2nc(-c3ccc4ccccc4c3)oc2CC)C1)C(=O)O (mixture of isomers) [Example 13, 2-{(1R,3S)-3-[5-Ethyl-2-(naphth-2-yl)oxazol-4-ylmethoxy]cyclohexylmethoxy}-2-methylpentanoic acid]
0.38 nM and 0.53 nM |  | CCCC(C)(OC[C@@H]1CCC[C@H](OCc2nc(-c3ccc(C(C)C)cc3)oc2CC)C1)C(=O)O (mixture of isomers) [Example 14, 2-{(1R,3S)-3-[5-Ethyl-2-(4-isopropylphenyl)oxazol-4-ylmethoxy}cyclohexylmethoxy]-2-methylpentanoic acid]
0.39 nM | 160 | CCCC(C)(OC[C@@H]1CCC[C@H](OCc2nc(-c3ccc4ccccc4c3)oc2C)C1)C(=O)O (mixture of isomers) [Example 15, 2-Methyl-2-{(1R,3S)-3-[5-methyl-2-(naphth-2-yl)oxazol-4-ylmethoxy]-cyclohexylmethoxy}pentanoic acid]
17 nM | 400 | CCc1oc(-c2cccc(OC)c2)nc1CO[C@H]1CCC[C@@H](COC(C)(Cc2ccccc2)C(=O)O)C1 (mixture of isomers) [Example 16, 2-{(1R,3S)-3-[5-Ethyl-2-(3-methoxyphenyl)oxazol-4-ylmethoxy]cyclohexylmethoxy}-2-methyl-3-phenylpropionic acid]
0.16 nM | 510 | CCc1oc(-c2ccc(C)cc2)nc1CO[C@H]1CCC[C@@H](COC(C)(Cc2ccccc2)C(=O)O)C1 (mixture of isomers) [Example 17, 2-[(1R,3S)-3-(5-Ethyl-2-p-tolyloxazol-4-ylmethoxy)cyclohexylmethoxy]-2-methyl-3-phenylpropionic acid]
2.6 nM | 150 | CCc1oc(-c2ccc(CC(C)C)cc2)nc1CO[C@H]1CCC[C@@H](COC(C)(Cc2ccccc2)C(=O)O)C1 (mixture of isomers) [Example 18, 2-{(1R,3S)-3-[5-Ethyl-2-(4-isobutylphenyl)oxazol-4-ylmethoxy]cyclohexylmethoxy}-2-methyl-3-phenylpropionic acid]
0.38 nM | 540 | CCc1oc(-c2ccc3ccccc3c2)nc1CO[C@H]1CCC[C@@H](COC(C)(Cc2ccccc2)C(=O)O)C1 (mixture of isomers) [Example 19, 2-{(1R,3S)-3-[5-Ethyl-2-(naphth-2-yl)oxazol-4-ylmethoxy]cyclohexylmethoxy}-2-methyl-3-phenylpropionic acid]
0.54 nM | 170 | CCc1oc(-c2ccc(C(C)C)cc2)nc1CO[C@H]1CCC[C@@H](COC(C)(Cc2ccccc2)C(=O)O)C1 (mixture of isomers) [Example 20, 2-{(1R,3S)-3-[5-Ethyl-2-(4-isopropylphenyl)oxazol-4-ylmethoxy]cyclohexylmethoxy}-2-methyl-3-phenylpropionic acid]
 | > 10000 | Cc1ccc(-c2nc(CO[C@H]3CCC[C@@H](COC(C)(C)C(=O)O)C3)c(C)o2)cc1 [*]
